Data published in patent US7452870B2, “Drug-eluting stents coated with P2Y12 receptor antagonist compound” (Inspire Pharmaceuticals, Inc., priority 2000, dated 2008).
Counter-ions that a name gives are not always drawn.

How the values were obtained:
[1] = system: washed platelet (ADP-induced aggregation; P2Y12 receptor); assay: ADP-induced platelet aggregation, washed platelet preparation; format: cell-based; settings: Homo sapiens, inhibition of ADP-induced aggregation, washed platelets, average of at least two separate experiments
Protocol: Blood was collected from healthy volunteers into syringes containing ⅙ final blood volume of anti-coagulant ACD (65 mM citric acid, 85 mM sodium citrate, 110 mM dextrose) for washed platelet (WP) preparation or into a syringe containing a final concentration of 10 units/mL heparin or 300 μM PPACK for whole blood (WB) assays. The blood collected for whole blood assays was maintained at room temperature and immediately tested as described below. […] These centrifugations and washes were repeated twice following by resuspension in the media described above containing 0.25 U apyrase/mL. Platelet aggregation was measured using the optical mode of a CHRONOLOG® aggregometer (Havertown, Pa.). Five hundred μl of platelet suspension containing 1 mg/mL Fibrinogen were warmed to 37° C. and stirred at 1000 rpm. Indicated concentrations of ADP were added to the sample and aggregation was monitored for 8 minutes. […] For whole blood aggregation, blood was diluted 1:1 with saline and then aggregation was performed in the same manner as described above using the impedance mode of the aggregometer. The potency of agonists and inhibitors of platelet aggregation was calculated from both, the rate of aggregation and the maximal extent of aggregation obtained for each determination by fitting the data to a four-parameter logistic equation using the […]® software package (GraphPad Corp. San Diego, Calif.).
The ability of P2Y12 antagonists to inhibit platelet aggregation is presented in this application as the percent inhibition of the aggregation induced by a maximally effective concentration of ADP.
Data presented are from the average of at least two separate experiments.

[2] = molecular target: P2Y1 (Homo sapiens, UniProt P47900); assay: Calcium mobilization assay, P2Y1; format: cell-based; parameters: key: no response (NR); settings: activation of P2Y1 receptor;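 note: test compound added first then a maximal dose of the cognate agonist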
P2Y1, sequence (P47900 whole entry): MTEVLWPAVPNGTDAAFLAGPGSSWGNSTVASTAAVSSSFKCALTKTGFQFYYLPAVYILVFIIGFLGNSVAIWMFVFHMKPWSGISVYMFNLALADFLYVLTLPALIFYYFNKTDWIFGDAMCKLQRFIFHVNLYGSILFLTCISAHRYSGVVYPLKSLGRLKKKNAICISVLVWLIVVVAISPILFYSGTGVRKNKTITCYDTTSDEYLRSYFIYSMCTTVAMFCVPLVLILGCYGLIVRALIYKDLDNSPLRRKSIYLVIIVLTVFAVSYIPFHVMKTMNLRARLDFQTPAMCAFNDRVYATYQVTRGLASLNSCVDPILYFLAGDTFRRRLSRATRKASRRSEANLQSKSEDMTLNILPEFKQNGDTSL

[3] = molecular target: P2Y2 (Homo sapiens, UniProt P41231); assay: Calcium mobilization assay, P2Y2; format: cell-based; parameters: key: no response (NR); settings: activation of P2Y2 receptor;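 note: test compound added first then a maximal dose of the cognate agonist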
P2Y2, sequence (P41231 whole entry, species assumed): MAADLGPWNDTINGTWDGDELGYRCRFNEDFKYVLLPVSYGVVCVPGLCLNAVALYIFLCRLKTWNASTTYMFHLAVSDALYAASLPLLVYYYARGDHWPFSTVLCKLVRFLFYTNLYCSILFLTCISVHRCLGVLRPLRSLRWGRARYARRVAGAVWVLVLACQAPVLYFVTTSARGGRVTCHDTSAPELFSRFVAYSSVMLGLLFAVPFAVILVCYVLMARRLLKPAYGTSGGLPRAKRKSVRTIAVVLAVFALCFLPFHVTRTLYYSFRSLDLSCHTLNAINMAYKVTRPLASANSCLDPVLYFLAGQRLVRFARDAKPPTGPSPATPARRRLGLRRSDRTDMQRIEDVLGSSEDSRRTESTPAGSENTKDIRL

[4] = molecular target: P2Y4 (Homo sapiens, UniProt P51582); assay: Calcium mobilization assay, P2Y4; format: cell-based; parameters: key: no response (NR); settings: activation of P2Y4 receptor;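 note: test compound added first then a maximal dose of the cognate agonist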
P2Y4, sequence (P51582 whole entry, species assumed): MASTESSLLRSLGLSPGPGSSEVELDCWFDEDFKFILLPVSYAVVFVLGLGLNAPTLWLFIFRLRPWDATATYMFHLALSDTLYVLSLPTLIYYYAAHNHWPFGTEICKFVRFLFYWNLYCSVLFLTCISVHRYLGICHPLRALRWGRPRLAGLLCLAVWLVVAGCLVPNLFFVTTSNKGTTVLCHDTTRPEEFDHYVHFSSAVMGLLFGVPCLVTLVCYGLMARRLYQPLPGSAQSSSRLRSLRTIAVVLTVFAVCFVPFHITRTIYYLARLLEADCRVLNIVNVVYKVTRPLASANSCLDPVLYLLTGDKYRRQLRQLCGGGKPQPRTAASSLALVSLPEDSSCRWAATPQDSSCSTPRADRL

[5] = molecular target: P2Y6 (Homo sapiens, UniProt Q15077); assay: Calcium mobilization assay, P2Y6; format: cell-based; parameters: key: no response (NR); settings: activation of P2Y6 receptor;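 note: test compound added first then a maximal dose of the cognate agonist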
P2Y6, sequence (Q15077 whole entry, species assumed): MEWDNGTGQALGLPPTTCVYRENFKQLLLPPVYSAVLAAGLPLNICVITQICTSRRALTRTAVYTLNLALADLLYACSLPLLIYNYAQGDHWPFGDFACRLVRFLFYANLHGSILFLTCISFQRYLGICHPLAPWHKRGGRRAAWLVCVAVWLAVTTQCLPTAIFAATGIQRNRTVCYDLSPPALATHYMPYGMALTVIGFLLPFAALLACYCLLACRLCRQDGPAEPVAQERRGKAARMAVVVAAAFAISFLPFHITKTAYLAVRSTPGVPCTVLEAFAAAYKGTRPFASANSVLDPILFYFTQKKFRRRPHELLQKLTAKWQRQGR

[6] = system: platelet aggregation (platelet rich plasma); assay: Ex-vivo ADP-induced platelet aggregation after intravenous administration in mice
Protocol: In order to evaluate the effects of inhibition of platelet aggregation in-vivo by the compounds described in this invention, experimental protocols similar to those described by Leon et al. (Circulation 103:718-723, 2001) were performed.
Anesthetized mice were injected intravenously with either saline or with different doses of trans-2′,3′-cinnamyl acetal-6N-ethylurea adenosine 5′-monophosphate, bis sodium salt (Compound 41), usually between 1 and 100 μg/kg. Five minutes after the administration of the compound, 700 μL of blood were obtained from each animal. The blood of two animals was combined and immediately processed to obtain platelet rich plasma for the assessment of platelet aggregation stimulated by 1 and 5 μM ADP. Platelet aggregation was measured using optical aggregometry as described in Example 21.
A key characteristic of the compounds described in this invention is the reversible nature of the inhibition of platelet aggregation. The model system described in Example 28 was also used to study the kinetics of in-vivo inhibition of platelet aggregation with selected compounds. Briefly, a maximally effective concentration of test compound was administered intravenously, and blood samples were obtained before and at different times (usually 0, 1, 5, 15 and 30 minutes) after the administration of trans-2′,3′-cinnamyl acetal-6N-ethylurea adenosine 5′-monophosphate, bis sodium salt (Compound 41). Blood samples were processed immediately and aggregation induced by 1 μM and 5 μM ADP was estimated as described in Example 31.

[7] = system: systemic intravascular thromboembolism; assay: Thromboembolism-induced mortality (collagen and epinephrine) in mice; format: in vivo; settings: 25 mg/kg single IV bolus five minutes before 0.3 mg/kg collagen and 60 μg/kg epinephrine
Protocol: Ten anesthetized mice were treated with vehicle (control) or with a single bolus intravenous administration of test compound (usually between 10 and 25 mg/kg). Five minutes after treatment, the animals were injected with a mixture of 0.3 mg/kg collagen and 60 μg/kg epinephrine. The survival time after the administration of collagen and epinephrine in animals pretreated with saline or 25 mg/kg of the test compound 2′3′-(trans)cinnamyl acetal-6-N-ethylurea AMP (compound 41), are shown using the Kaplan-Meier plot in FIG. 3. Ninety percent of the vehicle-pretreated animals died within 6 minutes after the IV injection of collagen and epinephrine.

[8] = system: whole blood platelet aggregation; assay: Ex-vivo whole blood platelet aggregation during and after continuous IV infusion in dogs; parameters: species or system beagle dogs
Protocol: (§1) Two weeks prior to the study, beagle dogs were implanted with jugular catheters and vascular access ports. Groups of four dogs (two of each sex) were fitted with jackets and connected to ambulatory infusion pumps for drug administration.
(§2) The day of the study, dogs were treated with a continuous infusion of different concentrations of test compound (usually between 0.1 and 1.5 mg/kg/h) for 90 minutes at a rate of 3 mL/kg/h. Approximately 30 minutes and 15 minutes prior to the start of infusion (predose samples), at different times during each infusion period (usually 10, 30, 60, and 90 minutes), and after the termination of the infusion (usually 5, 10, 20, 30, 40, 60, 120, and 240 minutes and 18, 20, 22, and 24 hours), blood was withdrawn from a cephalic vein catheter for the assessment of ex-vivo whole blood platelet aggregation assays and/or for bioanalytical determination of the plasma levels of the test compound. Platelet aggregation was estimated using the impedance mode of a CHRONOLOG® aggregometer as described in Example 24, and the plasma levels of the test compound were analyzed on an API 4000 LC/MS/MS system coupled with an Agilent 1100 series liquid chromatograph.

[9] = Plasma levels of test compound during and after IV infusion in dogs (LC/MS/MS); format: in vivo; settings: both sexes, beagle, dog, after the end of infusion, one-compartment model analysis, FIG. 5B
Protocol: as §1, §2
The pharmacological effect of the administration of the test compound correlated closely with the plasma levels of the compound. […]

For `CCNC(=O)Nc1ncnc2c1ncn2[C@@H]1O[C@H](COP(=O)(O)O)C2O[C@H](/C=C/c3ccccc3)OC21` (stereo in doubt) [Compound 41, Phosphoric acid mono-{6-[6-(3-ethyl-ureido)-purin-9-yl]-2-styryl-tetrahydro-furo[3,4-d][1,3]dioxol-4-ylmethyl} ester bis sodium salt], the IC50 [1] was 13 ± 2 nM, the “Calcium Mobilization P2Y1” value [2] was “NR” and the “Calcium Mobilization P2Y2” value [3] was “NR”. For the same molecule, the “Calcium Mobilization P2Y4” value [4] was “NR”, the “Calcium Mobilization P2Y6” value [5] was “NR” and the “inhibition of ADP-induced platelet aggregation five minutes after administration” value ([6]; intravenous maximally effective concentration, 1 μM and 5 μM ADP, 5 minutes) was “Complete inhibition”. The “aggregation response to ADP by 30 minutes after administration” value ([6]; intravenous maximally effective concentration, 1 μM and 5 μM ADP, 30 minutes) was “returned to values similar to those observed in control animals”, the “inhibition of platelet aggregation, dose dependence” value ([6]; intravenous, blood taken five minutes after administration, 1 and 5 μM ADP) was “dose-dependent inhibition” and the “mortality resulting from systemic intravascular thromboembolism” value [7] was 20%. The “restoration of platelet aggregation following termination of infusion” value ([8]; after end of IV infusion, FIG. 5A) was “nearly complete restoration of platelet aggregation within an hour”, the “time at which the pharmacodynamic effect reached steady state” value ([8]; continuous IV infusion, FIG. 5A (0.3 mg/kg/h)) was no more than 30 min and the “infusion rate giving the maximal inhibitory effect on platelet aggregation” value ([8]; continuous intravenous infusion) was 0.3 mg/kg/h. For the same molecule, the “inhibition of platelet aggregation, dose dependence” value ([8]; continuous intravenous infusion for 90 minutes) was “dose-dependent inhibition” and the half-life [9] was roughly 7 min.
